# Measured values as given in patent US11931374B2, “Adenosine receptor modulators for the treatment of circadian rhythm disorders” (OXFORD UNIVERSITY INNOVATION LIMITED, priority 2016, dated 2024).
# Key:
# [1] = tested on: Per2::Luc U2OS cells; assay: Per2::Luc cell based circadian assay; settings: Per2::Luc U2OS cells, dose response
# Description: U2OS cells stably transfected with a Per2::Luc reporter were cultured in DMEM supplemented with 10% FBS. For siRNA- and drug-based experiments, cells were seeded at 5,000 per well into white 384 well plates and transfected with 20 nM siRNA the next day. 2 days later, the cells were synchronized with 100 nM dexamethasone and the medium was replaced with phenol-red free DMEM supplemented with B-27 and 100 µM luciferin potassium salt, requisite drugs formulated in DMSO as a 1000× stock was added, and then sealed. Per2::Luc rhythms were recorded from a BMG Labtech Fluostar Omega plate reader maintained at 36° C. and readings taken from each well every hour. Data were then analysed using either Multicycle or Brass rhythm analysis software.
# Period2::Luciferase (Per2::Luc) stable U2OS transfects were cultured, as described above. A Greiner Bio-One 384 Well Plate (Polystyrene, F-bottom), was then seeded at 6000 cells per 50 μl well. Following a 24 hour period, the cells were treated with 0.1% dexamethasone, a glucocorticoid hormone analogue known to reset intracellular circadian rhythms, for 1 hour. Subsequently, the dexamethasone-containing medium was removed, the cells were washed with PBS and luciferin and test drug containing medium was added. The cells were then assayed for luminescence over a period of 96 hours in the BMG FLUOstar OPTIMA Microplate Reader to observe the periodicity and amplitude of the luminescence values.
# [2] = tested on: CRE::Luc reporter; assay: CRE-Luc luciferase assay in U2OS cells; format: cell-based
# Description: At 60-80% confluence and >90% viability, the U2OS cells in the T-75 flask were washed twice with 6 ml phosphate-buffered saline (PBS) and subsequently treated with 4 ml of TrypLE™ Express trypsin replacement solution for 10 minutes. A Greiner Bio-One 96 Well Plate (white, TC treated), was then seeded at 8000 cells per well. Following 24 hours, the cells were transfected at 50-70% confluency with CRE-luc Vector generated in-house with Viafect transfection reagent at 1:4 ratio (100 ng DNA/well) following manufacturers recommendations.
# 24 hours after transfection, the medium in the 96 well plate was changed to a serum-free medium with 1 mM luciferin. The cells were then incubated in serum starvation conditions for 6-8 hours, this was optimised to yield the greatest signal strength and lowest noise when assayed with forskolin control. Following the incubation period, the CRE-Luc U2OS cells were treated with the appropriate drug and their luminescence values were measured after 6 hours in the BMG FLUOstar OPTIMA Microplate Reader. […] Unless stated otherwise, forskolin was used as a positive control, and 1% DMSO was used as a negative control.
# [3] = tested on: Per1; assay: Per1 mRNA levels in U2OS cells by qPCR; format: cell-based
# Description: (§1) Total RNA was extracted using the microRNeasy column method (Qiagen, Hilden, Germany). Quality and quantity of RNA were measured using an Agilent Bioanalyzer and a Nanodrop1000 (Thermo Fisher Scientific, Waltham, MA USA), respectively.
# (§2) RNA samples were prepared as described for microarray hybridisation. cDNA was synthesized with a qScript cDNA synthesis kit (Quanta Biosciences, Gaithersburg, MD), and quantitative PCR (qPCR) was conducted with Sybr green I and an SDS7700 thermal cycler (Applied Biosystems, Foster City, CA). Relative quantification of transcript levels was done as described previously (Peirson et al., Nucleic Acids Res. 2003 Jul. 15; 31(14):e73.). The geometric mean of a minimum of three housekeeping genes was used for normalization (Gapdh, ActB, GusB and Rps9 for example).
# (§3) Cells from the U2OS (HTB-96) line were obtained, tested and identified. The cells were cultured in T-75 flasks, in Dulbecco's modified Eagle medium (DMEM) supplemented with 10% foetal bovine serum (FBS) and 1% penicillin-streptomycin (P/S) at 37° C. in a humidified atmosphere at 5% CO2. The cells were subcultured every 2 to 4 days in a 1:2 to 1:6 ratio, in accordance with the ATCC recommendations. The cells were counted using a haemocytometer, and their viability in a culture was maintained at above 95%, measured with a Presto Blue exclusion assay according to the manufacturer's specifications. Cells were transfected with siRNAs (typically at 50 nM concentrations, sequences as previously listed), the CRE::Luc (pGL4.29[luc2P/CRE/Hygro] Vector, encoding Luc2P […] under the control of a strong cAMP response element (CRE) promoter containing 3 CRE elements within its sequence; Promega) reporter vector or cAMP-GLOSensor plasmid (Promega) as per manufacturer's instructions using either Lipofectamine RNAimax (Invitrogen) or Lipofectamine3000 (Invitrogen).
# [4] = tested on: Per2; assay: Per2 mRNA levels in U2OS cells by qPCR; format: cell-based
# Description: as §1, §2, §3
# [5] = tested on: STAR-PROM plasmid library; assay: STAR-PROM transcription factor screening in U2OS cells; format: cell-based
# Description: This was conducted as previously reported in Gerber et al., Cell. […] Briefly, U2OS cells were cultured in 6-well plates and transfected with 1 ug of the STAR-PROM plasmid library (library structure as in above reference). RNA was extracted at set time points and sequenced for the barcoded luciferase constructs and analysed with Galaxy (https://use.galaxy.org).
# [6] = tested on: Fos; assay: Fos mRNA after drug treatment; format: cell-based; settings: 10 uM
# Description: as §1, §2
# [7] = tested on: cJun; assay: cJun mRNA after drug treatment; format: cell-based; settings: 10 uM
# Description: as §1, §2
# [8] = tested on: Per2::Luc SCN slice cultures; assay: Per2::Luc SCN slice culture; format: cell-based, mice; settings: isolated Per2::Luc SCN slice cultures
# From the text: SCN Tissue Collection: Animals were housed under a 12:12 LD cycle for 2 weeks with food and water ad libitum. Animals then received either a drug injection with a alteration in the light dark cycle as described in the experiment and at set points following drug administration were sacrificed by cervical dislocation. Sham-treated mice not given a light pulse were dissected at each time point. Brains were removed and placed into a brain matrix (Kent Scientific, Torrington CT, USA). Per2::Luc transgenic animals (as reported in Yoo et al, Proc Natl Acad Sci USA. 2004 Apr. 13; 101(15):5339-46) were obtained from Prof Joseph Takahashi, Northwestern University.
# For SCN slice culture: The brain was gently cut into a cube preserving the integrity of the SCN and cut into […] slices in ice-cold oxygenated Hanks Balanced Salt Solution containing 100 nM MK801 (Sigma-Aldrich). The SCN was microdissected and transferred to membrane filter (Millicell Cell Culture Insert, 30 mm, hydrophilic PTFE, 0.4 μm, Millipore) and cultured in 300 uL DMEM prepared as detailed in the Per2::Luc Assay.
# [9] = tested on: Per1/2; assay: Sleep deprivation, Per1/2 expression within the SCN; format: in vivo; settings: sleep deprivation decreases Per1/2 expression
# [10] = U2OS cells, qPCR, concentration not given
structure (smiles),measurement,setting,value
"Nc1nc(-c2ccccc2)c2c(n1)-c1cc(OCCN3CCOCC3)ccc1C2=O [JNJ40255293, 2-amino-8-[2-(4-morpholinyl)ethoxy]-4-phenyl-5H-indeno[1,2-d]pyrimidin-5-one]",circadian period length,[1],increased circadian period length in a dose dependent manner
same,CREB-driven transcription (CRE::Luc reporter),[2],does not increase signals from the CRE::Luc reporter
same,Per1 transcription,[3]; 4 h post-drug treatment,significantly increased
same,Per1 mRNA,"[3]; U2OS cell cultures, 10 uM",Robust increases
same,Per1 mRNA levels,"[3]; U2OS cells, 30 uM",elevated
same,Per1 mRNA levels / expression,[3]; [10],induce the expression of Per1 and Per2
same,Per2 transcription,[4]; 4 h post-drug treatment,significantly increased
same,Per2 mRNA,"[4]; U2OS cell cultures, 10 uM",Robust increases
same,Per2 mRNA levels,"[4]; U2OS cells, 30 uM",elevated
same,Per2 mRNA levels / expression,[4]; [10],induce the expression of Per1 and Per2
same,clones with significantly increased reporter signal,"[5]; BC-STARPROM, 30 uM",8 clones
same,response of clone3 reporter,[5]; isolated clone3,responded
same,Fos mRNA,[6],Upregulation
same,cJun mRNA,[7],Upregulation
same,period length,[8],increased period length
same,Per1/2 expression within the SCN,[9],reversed
